Measured values as given in patent US20170283425A1, “COMPOUNDS FOR THE INHIBITION OF CYCLOPHILINS AND USES THEREOF” (Merck Patent GmbH, priority 2016, published 2017).
pIC50, pKd: −log10 of the molar value.

Columns and labels:
CypD [1] = target: T1, CypD (Homo sapiens, UniProt P30405); test: SPR binding; conditions: SPR surface; read-out: SPR CypD (KDSS)
Description: Binding was confirmed on an SPR surface using a protocol adapted from Mori et al., J. Biomolecular Screening, 2009 p 419.

CypD [2] = target: T1, CypD; test: CypD enzymatic assay (PPase-chymotrypsin coupled, suc-AAPF-p-NA substrate); type: biochemical; conditions: colorimetric
Description: The peptidyl-proline isomerase activity (PPase) was determined by using a PPase-chymotrypsin coupled assay with suc-AAPF-p-NA as substrated and colorimeric detection adapted from Liu et al., AnalBioChem, 2006 p 100.

CypD [3] = target: T1, CypD; test: CypD binding assay (competition fluorescence polarisation with fluorescein-labelled cyclosporin)
Description: The binding capacity of the compounds were measured using a competition Fluorescence-Polarisation based assay with fluorescine labelled cyclosporin. The protocol used was adapted from Hausch et al, Med Chem lett 2010, p 536.

T1 sequence (P30405 30-207): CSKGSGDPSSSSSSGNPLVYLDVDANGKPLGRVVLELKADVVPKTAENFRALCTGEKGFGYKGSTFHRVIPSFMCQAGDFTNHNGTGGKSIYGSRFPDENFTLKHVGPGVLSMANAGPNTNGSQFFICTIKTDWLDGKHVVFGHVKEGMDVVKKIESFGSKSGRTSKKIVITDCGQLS

For `O=C(NCC(=O)N1CCCC1)NCc1ccc2c(c1)[C@H]1C[C@@H](N2)[C@H](O)CO1` [Compound 12, 1-((1R,9R,10S)-10-Hydroxy-12-oxa-8-aza-tricyclo[7.3.1.02,7]trideca-2(7),3,5-trien-4-ylmethyl)-3-(2-oxo-2-pyrrolidin-1-yl-ethyl)-urea], the pKd (CypD [1]) was 4.00 to 6.00, the pIC50 (CypD [2]) was 4.00 to 6.00 and the pIC50 (CypD [3]) was 4.00 to 6.00.

`O=C(NCC(=O)N1CCCC1c1ccccc1C(F)(F)F)NCc1ccc2c(c1)[C@@H]1C[C@H](N2)[C@H](O)CO1` (stereo partly drawn) [Compound 17, 1-(((2S,3S,6S)-3-hydroxy-2,3,4,6-tetrahydro-1H-2,6-methanobenzo[c][1,5]oxazocin-8-yl)methyl)-3-(2-oxo-2-(2-(2-(trifluoromethyl)phenyl)pyrrolidin-1-yl)ethyl)urea] was tested, and the pKd (CypD [1]) was 4.00 to 6.00 and the pIC50 (CypD [3]) was 4.00 to 6.00.

Compound `O=C(NCC(=O)N1CCC[C@H]1CO)NCc1ccc2c(c1)[C@H]1C[C@@H](N2)[C@H](O)CO1` [Compound 13, 1-(((2R,3S,6R)-3-hydroxy-2,3,4,6-tetrahydro-1H-2,6-methanobenzo[c][1,5]oxazocin-8-yl)methyl)-3-(2-((S)-2-(hydroxymethyl)pyrrolidin-1-yl)-2-oxoethyl)urea] has a pKd (CypD [1]) of 4.00 to 6.00 and a pIC50 (CypD [3]) of 4.00 to 6.00.

With `O=C(NCC(=O)N1CCC[C@@H]1CO)NCc1ccc2c(c1)[C@H]1C[C@@H](N2)[C@H](O)CO1` [Compound 14, 1-(((2R,3S,6R)-3-hydroxy-2,3,4,6-tetrahydro-1H-2,6-methanobenzo[c][1,5]oxazocin-8-yl)methyl)-3-(2-((R)-2-(hydroxymethyl)pyrrolidin-1-yl)-2-oxoethyl)urea] the pKd (CypD [1]) was 4.00 to 6.00 and the pIC50 (CypD [3]) was 4.00 to 6.00.

With `CCN1Cc2cc(CNC(=O)NCC(=O)N(C)[C@H](C)c3ccccc3)ccc2NCCC1=O` [Compound 35, (R)-2-(3-((5-ethyl-4-oxo-1,2,3,4,5,6-hexahydrobenzo[b][1,5]diazocin-8-yl)methyl)ureido)-N-methyl-N-(1-phenylethyl)acetamide] the pKd (CypD [1]) was 4.00 to 6.00 and the pIC50 (CypD [3]) was 4.00 to 6.00.

`CCN1Cc2cc(CCC(=O)NCC(=O)N3CCC[C@@H]3C(F)(F)F)ccc2NCCC1=O` [Compound 30, 3-(5-Ethyl-4-oxo-1,2,3,4,5,6-hexahydro-benzo[b][1,5]diazocin-8-yl)-N-[2-oxo-2-((R)-2-trifluoromethyl-pyrrolidin-1-yl)-ethyl]-propionamide] showed a pKd (CypD [1]) of 4.00 to 6.00 and a pIC50 (CypD [3]) of 4.00 to 6.00.

`CCN1Cc2cc(CCC(=O)NCC(=O)N3CCCC3)ccc2NCCC1=O` [Compound 27, 3-(5-Ethyl-4-oxo-1,2,3,4,5,6-hexahydro-benzo[b][1,5]diazocin-8-yl)-N-(2-oxo-2-pyrrolidin-1-yl-ethyl)-propionamide] was tested, and the pKd (CypD [1]) was 4.00 to 6.00 and the pIC50 (CypD [3]) was 4.00 to 6.00.

`CCN1Cc2cc(CCC(=O)NCC(=O)N3CCCC3c3ccccn3)ccc2NCCC1=O` (stereo not drawn) [Compound 28, 3-(5-Ethyl-4-oxo-1,2,3,4,5,6-hexahydro-benzo[b][1,5]diazocin-8-yl)-N-[2-oxo-2-(2-pyridin-2-yl-pyrrolidin-1-yl)-ethyl]-propionamide] was tested, and the pKd (CypD [1]) was 4.00 to 6.00 and the pIC50 (CypD [3]) was 4.00 to 6.00.

With `C[C@H](c1ccccc1)N(C)C(=O)CNC(=O)NCc1ccc2c(c1)[C@H]1C[C@@H](N2)[C@H](O)CO1` [Compound 38, 2-(3-(((2R,3S,6R)-3-hydroxy-2,3,4,6-tetrahydro-1H-2,6-methanobenzo[c][1,5]oxazocin-8-yl)methyl)ureido)-N-methyl-N—((R)-1-phenylethyl)acetamide] the pKd (CypD [1]) was 4.00 to 6.00 and the pIC50 (CypD [3]) was 4.00 to 6.00.

With `O=C(NCC(=O)N1CCCC1c1ccccc1C(F)(F)F)NCc1ccc2c(c1)[C@H]1C[C@@H](N2)[C@H](O)CO1` (stereo partly drawn) [Compound 4] the pKd (CypD [1]) was > 6.00 and the pIC50 (CypD [3]) was > 6.00.
